Laboratory results published in article PMC7753047, “Reversal of Cancer Multidrug Resistance (MDR) Mediated by ATP-Binding Cassette Transporter G2 (ABCG2) by AZ-628, a RAF Kinase Inhibitor” (Frontiers in Cell and Developmental Biology, 2020).

Columns and labels:
[1] = target: T1, ABCG2 (Homo sapiens, UniProt Q9UNQ0); assay: vanadate-sensitive ATPase assay in ABCG2 membranes (stimulation up to […]); also inhibition of [3H]-mitoxantrone efflux at […]; assay type: cell-based; design: full-length human ABCG2 in membranes of transfected HEK293 cells; conditions: read-out: vanadate-sensitive ATPase assay in ABCG2 membranes (stimulation up to 4.3-fold)
T1 sequence (Q9UNQ0 1-655): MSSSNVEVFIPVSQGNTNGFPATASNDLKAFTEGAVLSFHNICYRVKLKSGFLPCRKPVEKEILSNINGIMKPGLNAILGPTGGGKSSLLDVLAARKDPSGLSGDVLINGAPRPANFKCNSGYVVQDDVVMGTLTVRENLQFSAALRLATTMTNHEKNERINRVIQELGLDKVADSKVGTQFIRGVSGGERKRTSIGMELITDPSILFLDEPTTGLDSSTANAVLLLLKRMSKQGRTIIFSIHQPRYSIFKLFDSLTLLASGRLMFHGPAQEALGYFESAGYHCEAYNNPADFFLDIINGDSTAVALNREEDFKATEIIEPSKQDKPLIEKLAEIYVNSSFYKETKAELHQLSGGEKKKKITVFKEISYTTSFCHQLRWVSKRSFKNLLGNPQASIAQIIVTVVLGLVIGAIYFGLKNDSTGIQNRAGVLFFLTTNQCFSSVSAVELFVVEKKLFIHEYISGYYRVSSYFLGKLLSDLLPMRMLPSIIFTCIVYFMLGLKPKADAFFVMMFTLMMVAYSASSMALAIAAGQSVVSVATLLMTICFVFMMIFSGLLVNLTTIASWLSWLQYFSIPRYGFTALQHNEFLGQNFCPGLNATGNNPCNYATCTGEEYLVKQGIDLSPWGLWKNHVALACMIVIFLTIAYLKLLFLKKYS

[2] = target: T1, ABCG2; assay: vanadate-sensitive ATPase assay in ABCG2 membranes (stimulation); assay type: cell-based; design: full-length human ABCG2 in membranes of transfected HEK293 cells
[3] = target: T1, ABCG2

| SMILES | vanadate-sensitive ATPase assay in ABCG2 membranes (stimulation) [2] | also measured |
| --- | --- | --- |
| Cc1ccc(NC(=O)c2cccc(C(C)(C)C#N)c2)cc1Nc1ccc2ncn(C)c(=O)c2c1 [AZ-628] |  | maximal fold induction [1]: 4.3 |
| COc1ccc([C@@H](O)c2cc(-c3ncnc4cc(N5CCOCC5)ccc34)c(F)cc2Cl)nn1 [M3814] | The results showed that AZ-628 stimulated ABCG2 ATPase to a higher level than M3814. |  |
| CC[C@@]1(O)C(=O)OCc2c1cc1n(c2=O)Cc2cc3c(CN(C)C)c(O)ccc3nc2-1 [topotecan] | Compared with the ABCG2 substrate topotecan, which is also an ABCG2 ATPase stimulator, AZ-628 showed stronger activation effects |  |
| O=C1c2c(O)ccc(O)c2C(=O)c2c(NCCNCCO)ccc(NCCNCCO)c21 [mitoxantrone] |  | [3H]-mitoxantrone efflux from ABCG2-overexpressing cells [3]: plotted to reflect the efflux of [^3H]-mitoxantrone by ABCG2 |
